“And” between values parts separate entries of the source, which are not always exact repeats. Identical values can stand only once.
Tested on: Hs578T multi-cell spheroids, viability
Test: Anticancer human tumor Hs578T cell line growth inhibition [IpAb];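 further: drug exposure lasted 7 days before readout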
Conditions: for viability, T/C: stronger effect = lower value
How it was run: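 Multi-cell spheroids of 60% tumour cells, 25% HUVEC and 15% MSC in ultra-low-attachment U-bottom wells, treated with agents combined with ipatasertib or abemaciclib. Half-log ranges top out near clinical Cmax, or 10 microM when Cmax is unknown.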

[1] = curve of first compound, second compound 0.1 µM
[2] = curve of first compound, second compound 0.316 µM
[3] = curve of first compound, second compound 1 µM
[4] = second compound 0.1 µM, first compound 0.0316 µM
[5] = second compound 0.1 µM, first compound 0.1 µM
[6] = second compound 0.1 µM, first compound 0.316 µM
[7] = second compound 0.1 µM, first compound 1 µM
[8] = second compound 0.1 µM, first compound 3.16 µM
[9] = second compound 0.1 µM, first compound 10 µM
[10] = second compound 0.316 µM, first compound 0.0316 µM
[11] = second compound 0.316 µM, first compound 0.1 µM
[12] = second compound 0.316 µM, first compound 0.316 µM
[13] = second compound 0.316 µM, first compound 1 µM
[14] = second compound 0.316 µM, first compound 3.16 µM
[15] = second compound 0.316 µM, first compound 10 µM
[16] = second compound 1 µM, first compound 0.0316 µM
[17] = second compound 1 µM, first compound 0.1 µM
[18] = second compound 1 µM, first compound 0.316 µM
[19] = second compound 1 µM, first compound 1 µM
[20] = second compound 1 µM, first compound 3.16 µM
[21] = second compound 1 µM, first compound 10 µM
[22] = curve of first compound, second compound 3.16 µM
[23] = curve of first compound, second compound 10 µM
[24] = second compound 3.16 µM, first compound 0.0316 µM
[25] = second compound 3.16 µM, first compound 0.1 µM
[26] = second compound 10 µM, first compound 0.0316 µM
[27] = second compound 10 µM, first compound 0.1 µM
[28] = second compound 3.16 µM, first compound 0.316 µM
[29] = second compound 3.16 µM, first compound 1 µM
[30] = second compound 3.16 µM, first compound 3.16 µM
[31] = second compound 3.16 µM, first compound 10 µM
[32] = second compound 10 µM, first compound 0.316 µM
[33] = second compound 10 µM, first compound 1 µM
[34] = second compound 10 µM, first compound 3.16 µM
[35] = second compound 10 µM, first compound 10 µM

Structure (SMILES): Cn1nccc1Nc1nccc(-c2ccn(C(CO)c3ccc(Cl)c(F)c3)c(=O)c2)n1 (stereo not given) + CCN1CCN(Cc2ccc(Nc3ncc(F)c(-c4cc(F)c5nc(C)n(C(C)C)c5c4)n3)nc2)CC1
- IC50 (curve of first compound, second compound 0.01 µM): 5.69 µM
- IC50 (curve of first compound, second compound 0.0316 µM): 4.08 µM
- IC50 [1]: 3.49 µM
- IC50 [2]: 6.16 µM
- IC50 [3]: 2.06 µM
- viability, T/C (second compound 0.01 µM, first compound 0.0316 µM): 100%
- viability, T/C (second compound 0.01 µM, first compound 0.1 µM): 109%
- viability, T/C (second compound 0.01 µM, first compound 0.316 µM): 110%
- viability, T/C (second compound 0.01 µM, first compound 1 µM): 88.8%
- viability, T/C (second compound 0.01 µM, first compound 3.16 µM): 64.1%
- viability, T/C (second compound 0.01 µM, first compound 10 µM): 37.3%
- viability, T/C (second compound 0.0316 µM, first compound 0.0316 µM): 92.2%
- viability, T/C (second compound 0.0316 µM, first compound 0.1 µM): 99.8%
- viability, T/C (second compound 0.0316 µM, first compound 0.316 µM): 96.3%
- viability, T/C (second compound 0.0316 µM, first compound 1 µM): 73.5%
- viability, T/C (second compound 0.0316 µM, first compound 3.16 µM): 61.6%
- viability, T/C (second compound 0.0316 µM, first compound 10 µM): 18.1%
- viability, T/C [4]: 79.2%
- viability, T/C [5]: 86.7%
- viability, T/C [6]: 88.6%
- viability, T/C [7]: 59.6%
- viability, T/C [8]: 56.5%
- viability, T/C [9]: 27.6%
- viability, T/C [10]: 79%
- viability, T/C [11]: 86.3%
- viability, T/C [12]: 86%
- viability, T/C [13]: 71.3%
- viability, T/C [14]: 63.8%
- viability, T/C [15]: 40.2%
- viability, T/C [16]: 81.8%
- viability, T/C [17]: 79.7%
- viability, T/C [18]: 85.5%
- viability, T/C [19]: 58.8%
- viability, T/C [20]: 50.4%
- viability, T/C [21]: 39.2%

Structure (SMILES): CC(C)n1nc(-c2ccc3oc(N)nc3c2)c2c(N)ncnc21 + CC(C)NCC(C(=O)N1CCN(c2ncnc3c2C(C)CC3O)CC1)c1ccc(Cl)cc1
- IC50 [1]: 0.00588 µM
- IC50 [2]: 0.00352 µM
- IC50 [3]: 0.00138 µM
- IC50 [22]: < 0.000316 µM
- IC50 [23]: < 0.000316 µM
- viability, T/C (second compound 0.1 µM, first compound 0.000316 µM): 94.8%
- viability, T/C (second compound 0.1 µM, first compound 0.001 µM): 86.6%
- viability, T/C (second compound 0.1 µM, first compound 0.00316 µM): 63.7%
- viability, T/C (second compound 0.1 µM, first compound 0.01 µM): 38.6%
- viability, T/C [4]: 19.9%
- viability, T/C [5]: 15.5%
- viability, T/C (second compound 0.316 µM, first compound 0.000316 µM): 79.2%
- viability, T/C (second compound 0.316 µM, first compound 0.001 µM): 72.4%
- viability, T/C (second compound 0.316 µM, first compound 0.00316 µM): 50.8%
- viability, T/C (second compound 0.316 µM, first compound 0.01 µM): 30.7%
- viability, T/C [10]: 14.2%
- viability, T/C [11]: 11.8%
- viability, T/C (second compound 1 µM, first compound 0.000316 µM): 61.7%
- viability, T/C (second compound 1 µM, first compound 0.001 µM): 55.3%
- viability, T/C (second compound 1 µM, first compound 0.00316 µM): 37.2%
- viability, T/C (second compound 1 µM, first compound 0.01 µM): 20.7%
- viability, T/C [16]: 14%
- viability, T/C [17]: 12.2%
- viability, T/C (second compound 3.16 µM, first compound 0.000316 µM): 47.4%
- viability, T/C (second compound 3.16 µM, first compound 0.001 µM): 41.4%
- viability, T/C (second compound 3.16 µM, first compound 0.00316 µM): 28.4%
- viability, T/C (second compound 3.16 µM, first compound 0.01 µM): 17.3%
- viability, T/C [24]: 12.2%
- viability, T/C [25]: 10.4%
- viability, T/C (second compound 10 µM, first compound 0.000316 µM): 48.1%
- viability, T/C (second compound 10 µM, first compound 0.001 µM): 35.9%
- viability, T/C (second compound 10 µM, first compound 0.00316 µM): 25.4%
- viability, T/C (second compound 10 µM, first compound 0.01 µM): 12%
- viability, T/C [26]: 11.4%
- viability, T/C [27]: 8.97%

Structure (SMILES): CC1(C)CCC(CN2CCN(c3ccc(C(=O)NS(=O)(=O)c4ccc(NCC5CCOCC5)c([N+](=O)[O-])c4)c(Oc4cnc5[nH]ccc5c4)c3)CC2)=C(c2ccc(Cl)cc2)C1 + CC(C)NCC(C(=O)N1CCN(c2ncnc3c2C(C)CC3O)CC1)c1ccc(Cl)cc1
- IC50 [1]: 5.57 µM
- IC50 [2]: 5.15 µM
- IC50 [3]: 3.84 µM
- IC50 [22]: 1.56 µM
- IC50 [23]: < 0.0316 µM
- viability, T/C [4]: 97.1%
- viability, T/C [5]: 96.7%
- viability, T/C [6]: 101%
- viability, T/C [7]: 95.3%
- viability, T/C [8]: 83%
- viability, T/C [9]: 15.7%
- viability, T/C [10]: 79.9%
- viability, T/C [11]: 90.2%
- viability, T/C [12]: 89.2%
- viability, T/C [13]: 81.9%
- viability, T/C [14]: 77.1%
- viability, T/C [15]: 13.5%
- viability, T/C [16]: 66.9%
- viability, T/C [17]: 66.5%
- viability, T/C [18]: 66.4%
- viability, T/C [19]: 63%
- viability, T/C [20]: 58.2%
- viability, T/C [21]: 11.1%
- viability, T/C [24]: 53.3%
- viability, T/C [25]: 54.3%
- viability, T/C [28]: 51.3%
- viability, T/C [29]: 53.4%
- viability, T/C [30]: 45.9%
- viability, T/C [31]: 10.2%
- viability, T/C [26]: 46.7%
- viability, T/C [27]: 46.9%
- viability, T/C [32]: 46.8%
- viability, T/C [33]: 42.3%
- viability, T/C [34]: 40.9%
- viability, T/C [35]: 5.27%

Structure (SMILES): Cn1cnc2c(F)c(Nc3ccc(Br)cc3Cl)c(C(=O)NOCCO)cc21
- viability, T/C (compound 0.00949 µM): 102% and 100%
- viability, T/C (compound 0.03 µM): 104% and 97.5%
- viability, T/C (compound 0.0949 µM): 104% and 96%
- viability, T/C (compound 0.3 µM): 89.2% and 88.1%
- viability, T/C (compound 0.949 µM): 79.1% and 75%
- viability, T/C (compound 3 µM): 56.1% and 48.7%
- IC50 (curve of compound): > 3 µM and 2.85 µM

Structure (SMILES): CCCS(=O)(=O)Nc1ccc(F)c(C(=O)c2c[nH]c3ncc(-c4ccc(Cl)cc4)cc23)c1F + CC(C)NCC(C(=O)N1CCN(c2ncnc3c2C(C)CC3O)CC1)c1ccc(Cl)cc1
- IC50 [1]: 4.68 µM
- IC50 [2]: 3.6 µM
- IC50 [3]: 3.17 µM
- IC50 [22]: 1.35 µM
- IC50 [23]: < 0.0316 µM
- viability, T/C [4]: 97.9%
- viability, T/C [5]: 95.8%
- viability, T/C [6]: 92.3%
- viability, T/C [7]: 89.9%
- viability, T/C [8]: 71.2%
- viability, T/C [9]: 9.19%
- viability, T/C [10]: 94.8%
- viability, T/C [11]: 83.4%
- viability, T/C [12]: 88.3%
- viability, T/C [13]: 82.6%
- viability, T/C [14]: 55.3%
- viability, T/C [15]: 7.94%
- viability, T/C [16]: 69.2%
- viability, T/C [17]: 71.2%
- viability, T/C [18]: 74.1%
- viability, T/C [19]: 68.1%
- viability, T/C [20]: 50.1%
- viability, T/C [21]: 4.41%
- viability, T/C [24]: 56.5%
- viability, T/C [25]: 57.8%
- viability, T/C [28]: 51%
- viability, T/C [29]: 55.3%
- viability, T/C [30]: 35.8%
- viability, T/C [31]: 2.97%
- viability, T/C [26]: 48.3%
- viability, T/C [27]: 45.1%
- viability, T/C [32]: 49.5%
- viability, T/C [33]: 38.6%
- viability, T/C [34]: 27.5%
- viability, T/C [35]: 0.51%

Structure (SMILES): CC(=O)c1c(C)c2cnc(Nc3ccc(N4CCNCC4)cn3)nc2n(C2CCCC2)c1=O
- viability, T/C (compound 0.000949 µM): 105% and 108%
- viability, T/C (compound 0.003 µM): 90.8% and 99.7%
- viability, T/C (compound 0.00949 µM): 92.8% and 87.4%
- viability, T/C (compound 0.03 µM): 82.7% and 87.7%
- viability, T/C (compound 0.0949 µM): 73.4% and 73.1%
- viability, T/C (compound 0.3 µM): 63.6% and 72.5%
- IC50 (curve of compound): > 0.3 µM

Structure (SMILES): CCN1CCN(Cc2ccc(Nc3ncc(F)c(-c4cc(F)c5nc(C)n(C(C)C)c5c4)n3)nc2)CC1
- viability, T/C (compound 0.01 µM): 97.2% [middle of 13 runs]
- viability, T/C (compound 0.0316 µM): 90.4% [middle of 13 runs]
- viability, T/C (compound 0.1 µM): 83.7% [middle of 13 runs]
- viability, T/C (compound 0.316 µM): 83.3% [middle of 13 runs]
- viability, T/C (compound 1 µM): 94.2% [middle of 13 runs]
- IC50 (compound alone, run of 06/01/2021): > 1 µM
